Test results published in patent US9434711B2 (Janssen Pharmaceutica, NV, priority 2007, dated 2016).

Target: canine TRPM8 (Canis lupus familiaris, UniProt Q1A7N1)
Experiment: In Vitro Canine TRPM8 Functional Assay (Ca2+ fluorescence, icilin activation)
Type: cell-based
Conditions: for IC50: HEK293 cells stably expressing canine TRPM8, icilin activation, eight-point dose-response, read-out: IC50; for inhibition at 0.5 µM: compound at 0.5 μM, canine TRPM8, icilin activation, read-out: % Inh @ 0.5
Experimental: The functional activity of compounds of the formula (I) was determined by measuring changes in intracellular calcium concentration using a Ca^2+-sensitive fluorescent dye. The changes in fluorescent signal were monitored by a fluorescence plate reader, either a FLIPR™ (Molecular Devices) or FDSS (Hamamatsu).
At 24 hrs prior to assay, HEK293 cells stably expressing canine TRPM8 were seeded in culture medium in black wall, clear-base poly-D-lysine coated 384-well plates (BD Biosciences, NJ, USA) and grown overnight in 5% CO2 at 37° C. On assay day, growth media was removed and cells were loaded with Calcium 3 Dye (Molecular Devices) for 35 min at 37° C., under 5% CO2 and then for 25 min at room temperature and atmosphere. Subsequently, cells were tested for agonist-induced increases in intracellular Ca^2+ levels using FLIPR™ or FDSS. Cells were challenged with a compound of the Formula (I) (at varying concentrations) and intracellular Ca^2+ was measured for 5 min prior to the addition of icilin to all wells to achieve a final concentration that produces approximately an 80% maximal response. EC50 or IC50 values for compounds of the present invention were determined from eight-point dose-response studies. Curves were generated using the average of quadruplicate wells for each data point.

Sequence of canine TRPM8 (Q1A7N1 1-1104): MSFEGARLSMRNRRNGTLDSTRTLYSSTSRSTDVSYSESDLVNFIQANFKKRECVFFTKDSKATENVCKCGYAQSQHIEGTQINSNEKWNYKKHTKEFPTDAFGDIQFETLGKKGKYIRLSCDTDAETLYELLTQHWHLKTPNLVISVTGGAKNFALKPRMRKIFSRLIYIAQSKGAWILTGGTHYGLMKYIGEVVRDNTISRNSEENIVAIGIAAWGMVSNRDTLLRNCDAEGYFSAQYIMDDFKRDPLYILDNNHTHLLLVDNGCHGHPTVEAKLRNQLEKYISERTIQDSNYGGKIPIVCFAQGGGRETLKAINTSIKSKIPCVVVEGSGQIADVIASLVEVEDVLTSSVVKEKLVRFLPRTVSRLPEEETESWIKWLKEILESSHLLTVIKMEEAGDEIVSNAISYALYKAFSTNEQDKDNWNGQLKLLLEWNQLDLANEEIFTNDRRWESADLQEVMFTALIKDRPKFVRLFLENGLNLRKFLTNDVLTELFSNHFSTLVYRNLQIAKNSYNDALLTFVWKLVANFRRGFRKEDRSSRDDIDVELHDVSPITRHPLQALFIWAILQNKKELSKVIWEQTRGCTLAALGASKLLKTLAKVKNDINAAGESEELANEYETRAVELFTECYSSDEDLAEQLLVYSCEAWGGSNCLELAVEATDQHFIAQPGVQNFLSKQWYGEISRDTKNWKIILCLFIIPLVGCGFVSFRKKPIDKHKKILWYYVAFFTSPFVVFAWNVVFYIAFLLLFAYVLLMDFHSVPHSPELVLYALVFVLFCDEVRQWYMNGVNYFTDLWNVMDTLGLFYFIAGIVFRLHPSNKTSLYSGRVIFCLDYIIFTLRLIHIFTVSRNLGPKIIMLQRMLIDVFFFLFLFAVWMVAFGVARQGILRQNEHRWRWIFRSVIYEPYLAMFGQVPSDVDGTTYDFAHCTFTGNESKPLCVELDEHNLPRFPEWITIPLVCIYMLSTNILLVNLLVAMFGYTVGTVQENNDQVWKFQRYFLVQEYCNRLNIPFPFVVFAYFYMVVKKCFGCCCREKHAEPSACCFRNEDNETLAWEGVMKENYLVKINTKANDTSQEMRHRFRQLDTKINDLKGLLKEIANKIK

## O=S(=O)(c1ccccc1)N(Cc1ccc(F)c(F)c1)c1cc2ccccc2s1 [Compound 1, N-Benzo[b]thiophen-2-yl-N-(3,4-difluoro-benzyl)-benzenesulfonamide]
  IC50: 24 nM
  inhibition at 0.5 µM: 100%

## O=S(=O)(c1ccccc1)N(Cc1cccc(F)c1)c1cc2ccccc2s1 [Compound 3, N-Benzo[b]thiophen-2-yl-N-(3-fluoro-benzyl)-benzenesulfonamide]
  IC50: 35 nM
  inhibition at 0.5 µM: 98%

## O=S(=O)(c1ccccc1)N(Cc1ccc(F)cc1)c1sc2ccccc2c1Cl [Compound 4, N-(3-Chloro-benzo[b]thiophen-2-yl)-N-(4-fluoro-benzyl)-benzenesulfonamide]
  IC50: 4 nM
  inhibition at 0.5 µM: 97%

## O=S(=O)(c1ccccc1)N(Cc1cccc2cccnc12)c1sc2ccccc2c1Cl [Compound 5, N-(3-Chloro-benzo[b]thiophen-2-yl)-N-quinolin-8-ylmethyl-benzenesulfonamide]
  IC50: 63 nM
  inhibition at 0.5 µM: 97%

## O=S(=O)(c1ccccc1)N(Cc1ccc(OC(F)(F)F)cc1)c1sc2ccccc2c1Cl [Compound 6, N-(3-Chloro-benzo[b]thiophen-2-yl)-N-(4-trifluoromethoxy-benzyl)-benzenesulfonamide]
  IC50: 11.3 nM
  inhibition at 0.5 µM: 99%

## O=S(=O)(c1ccccc1)N(Cc1ccc(C(F)(F)F)cc1)c1sc2ccccc2c1Cl [Compound 8, N-(3-Chloro-benzo[b]thiophen-2-yl)-N-(4-trifluoromethyl-benzyl)-benzenesulfonamide]
  IC50: 10 nM
  inhibition at 0.5 µM: 99%

## O=S(=O)(c1ccccn1)N(Cc1ccc(F)c(F)c1)c1cc2ccccc2s1 [Compound 9, N-(Benzo[b]thiophen-2-yl)-N-(3,4-difluoro-benzyl)-pyridine-2-sulfonamide]
  IC50: 47 nM
  inhibition at 0.5 µM: 98%

## Cc1c(N(Cc2cccc3cccnc23)S(=O)(=O)c2cn(C)cn2)sc2ccccc12 [Compound 10, N-(3-Methyl-benzo[b]thiophen-2-yl)-N-(quinolin-8-ylmethyl)-1-methyl-1H-imidazole-4-sulfonamide]
  IC50: 229 nM
  inhibition at 0.5 µM: 89%

## Cc1c(N(Cc2ccc(OC(F)(F)F)cc2)S(=O)(=O)c2cn(C)cn2)sc2ccccc12 [Compound 11, N-(3-Methyl-benzo[b]thiophen-2-yl)-N-(4-trifluoromethoxy-benzyl)-1-methyl-1H-imidazole-4-sulfonamide]
  IC50: 33 nM
  inhibition at 0.5 µM: 97%

## Cc1c(N(Cc2ccc(F)c(F)c2)S(=O)(=O)c2cccnc2)sc2ccccc12 [Compound 12, N-(3,4-Difluoro-benzyl)-N-(3-methyl-benzo[b]thiophen-2-yl)-pyridine-3-sulfonamide]
  IC50: 6 nM
  inhibition at 0.5 µM: 97%

## Cc1c(N(Cc2ccc(OC(F)(F)F)cc2)S(=O)(=O)c2ccsc2)sc2ccccc12 [Compound 16, N-(3-Methyl-benzo[b]thiophen-2-yl)-N-(4-trifluoromethoxy-benzyl)-thiophene-3-sulfonamide]
  IC50: 6 nM
  inhibition at 0.5 µM: 99%

## Cc1c(N(Cc2cccc3cccnc23)S(=O)(=O)c2ccsc2)sc2ccccc12 [Compound 17, N-(3-Methyl-benzo[b]thiophen-2-yl)-N-(quinolin-8-ylmethyl)-thiophene-3-sulfonamide]
  IC50: 22 nM
  inhibition at 0.5 µM: 97%

## Cc1c(N(Cc2ccc(F)c(F)c2)S(=O)(=O)c2cc3ccccc3s2)sc2ccccc12 [Compound 18, N-(3,4-Difluoro-benzyl)-N-(3-methyl-benzo[b]thiophen-2-yl)-benzo[b]thiophene-2-sulfonamide]
  IC50: 81 nM
  inhibition at 0.5 µM: 94%

## Cc1c(N(Cc2cccc3cccnc23)S(=O)(=O)c2cc3ccccc3s2)sc2ccccc12 [Compound 19, N-(3-Methyl-benzo[b]thiophen-2-yl)-N-(quinolin-8-ylmethyl)-benzo[b]thiophene-2-sulfonamide]
  inhibition at 0.5 µM: 58%

## Cc1c(N(Cc2ccc(F)c(F)c2)S(=O)(=O)c2cccc3cccnc23)sc2ccccc12 [Compound 20, N-(3,4-Difluoro-benzyl)-N-(3-methyl-benzo[b]thiophen-2-yl)-quinoline-8-sulfonamide]
  IC50: 6 nM
  inhibition at 0.5 µM: 98%

## Cc1c(N(Cc2ccc(OC(F)(F)F)cc2)S(=O)(=O)c2cccc3cccnc23)sc2ccccc12 [Compound 21, N-(3-Methyl-benzo[b]thiophen-2-yl)-N-(4-trifluoromethoxy-benzyl)-quinoline-8-sulfonamide]
  IC50: 15 nM
  inhibition at 0.5 µM: 98%

## Cc1c(N(Cc2cccc3cccnc23)S(=O)(=O)c2cccc3cccnc23)sc2ccccc12 [Compound 22, N-(3-Methyl-benzo[b]thiophen-2-yl)-N-(quinolin-8-ylmethyl)-quinoline-8-sulfonamide]
  IC50: 32 nM
  inhibition at 0.5 µM: 98%

## O=S(=O)(c1ccccc1)N(Cc1cccc(F)c1)c1sc2ccccc2c1Cl [Compound 23, N-(3-Chloro-benzo[b]thiophen-2-yl)-N-(3-fluoro-benzyl)-benzenesulfonamide]
  IC50: 26 nM
  inhibition at 0.5 µM: 99%

## O=S(=O)(c1ccccc1)N(Cc1ccc(F)c(F)c1)c1sc2ccccc2c1Cl [Compound 24, N-(3-Chloro-benzo[b]thiophen-2-yl)-N-(3,4-difluoro-benzyl)-benzenesulfonamide]
  IC50: 8.8 nM
  inhibition at 0.5 µM: 100%

## COc1cccc(S(=O)(=O)N(Cc2ccc(F)c(F)c2)c2sc3ccccc3c2C)c1 [Compound 25, N-(3,4-Difluoro-benzyl)-N-(3-methyl-benzo[b]thiophen-2-yl)-3-methoxy-benzenesulfonamide]
  IC50: 21 nM
  inhibition at 0.5 µM: 99%

## COc1ccc(S(=O)(=O)N(Cc2ccc(F)c(F)c2)c2sc3ccccc3c2C)cc1 [Compound 26, N-(3,4-Difluoro-benzyl)-N-(3-methyl-benzo[b]thiophen-2-yl)-4-methoxy-benzenesulfonamide]
  IC50: 20 nM
  inhibition at 0.5 µM: 98%

## Cc1c(N(Cc2ccc(F)c(F)c2)S(=O)(=O)c2cccc3cnccc23)sc2ccccc12 [Compound 27, N-(3,4-Difluoro-benzyl)-N-(3-methyl-benzo[b]thiophen-2-yl)-isoquinoline-5-sulfonamide]
  IC50: 20 nM
  inhibition at 0.5 µM: 99%

## Cc1c(N(Cc2ccc(OC(F)(F)F)cc2)S(=O)(=O)c2cccc3cnccc23)sc2ccccc12 [Compound 28, N-(3-Methyl-benzo[b]thiophen-2-yl)-N-(4-trifluoromethoxy-benzyl)-isoquinoline-5-sulfonamide]
  IC50: 32 nM
  inhibition at 0.5 µM: 100%

## Cc1c(N(Cc2cccc3cccnc23)S(=O)(=O)c2cccc3cnccc23)sc2ccccc12 [Compound 29, N-(3-Methyl-benzo[b]thiophen-2-yl)-N-(quinolin-8-ylmethyl)-isoquinoline-5-sulfonamide]
  IC50: 33 nM
  inhibition at 0.5 µM: 99%

## Cc1c(N(Cc2ccc(F)c(F)c2)S(=O)(=O)c2ccc3ncccc3c2)sc2ccccc12 [Compound 30, N-(3,4-Difluoro-benzyl)-N-(3-methyl-benzo[b]thiophen-2-yl)-quinoline-6-sulfonamide]
  IC50: 12 nM
  inhibition at 0.5 µM: 100%

## Cc1c(N(Cc2ccc(OC(F)(F)F)cc2)S(=O)(=O)c2ccc3ncccc3c2)sc2ccccc12 [Compound 31, N-(3-Methyl-benzo[b]thiophen-2-yl)-N-(4-trifluoromethoxy-benzyl)-quinoline-6-sulfonamide]
  IC50: 22 nM
  inhibition at 0.5 µM: 100%
